This passage reports pest or weed control and Control value results from US12310365B2 (priority 2009, dated 2025).

Counter-ions that a name gives are not always drawn. Like-named read-outs stand apart in the source and are kept apart here.

Format in all cases: in vivo
The subject of test [1] is Pseudoperonospora cubensis. Description: Cucumber downy mildew curative test. The following applies: single ingredient; for pest or weed control at 20 ppm: treatment concentration 20 ppm.
For test [2], the system named is Pseudoperonospora cubensis. Description: Cucumber downy mildew preventive test. The note with it: for pest or weed control at 20 ppm: treatment concentration 20 ppm.
Test [3] deals with Botrytis cinerea (Diethofencarb-resistant strain). Description: Tomato gray mold preventive test (Diethofencarb-resistant strain).
The test system of a further test is Pyricularia oryzae. Description: whole plant or invertebrate. The note with it: topical, 168 h, read-out: Control value.
Test [4] relates to Sphaerotheca fuliginea. Description: Cucumber powdery mildew preventive test. The note with it: Podosphaera fuliginea, topical, 168 h; for pest or weed control at 20 ppm: treatment concentration 20 ppm; for pest or weed control at 10 ppm: treatment concentration 10 ppm.
In test [5] the test system is Sphaerotheca fuliginea. Description: Cucumber powdery mildew curative test. The following applies: Podosphaera fuliginea, topical, 168 h; for pest or weed control at 20 ppm: treatment concentration 20 ppm; for pest or weed control at 10 ppm: treatment concentration 10 ppm.
Test [6] concerns Phytophthora infestans. Description: whole plant or invertebrate. The following applies: in Solanum lycopersicum, topical, 168 h, read-out: Control value.
For test [7], the system named is Phytophthora infestans. Description: whole plant or invertebrate. The note with it: in Solanum lycopersicum, topical, 168 h, read-out: Control value. The source holds these as a separate data set.
[8] abbreviates: Pseudoperonospora cubensis, topical, 168 h, treatment concentration 10 ppm.
Setting [9] is: Botrytis cinerea, topical, 48 h, read-out: Control value.
Where [10] appears, read: Pseudoperonospora cubensis, topical, 168 h, treatment concentration 9.4 ppm.
Where [11] appears, read: treatment concentration 1.7 ppm.
Where [12] appears, read: Pseudoperonospora cubensis, topical, 168 h.
Where [13] appears, read: treatment concentration 4.4 ppm.
Setting [14] is: Pseudoperonospora cubensis, topical, 168 h, treatment concentration 160 ppm.
Where [15] appears, read: Pseudoperonospora cubensis, topical, 168 h, treatment concentration 40 ppm.
Where [16] appears, read: treatment concentration 55.3 ppm.
The mark [17] stands for this setting: treatment concentration 160 ppm.
Where [18] appears, read: treatment concentration 7.5 ppm.

With `C[C@@]1(c2ccc(Oc3ccccc3)cc2)OC(=O)N(Nc2ccccc2)C1=O` (racemic) [Famoxadone], the pest or weed control at 10 ppm in test [1] (setting [8]) is 92%; in test [2] (setting [8]) it was 0%.

With `CO/C=C(/C(=O)OC)c1ccccc1Oc1cc(Oc2ccccc2C#N)ncn1` [Azoxystrobin], the values for the Control value in test [1] (treatment concentration 8 ppm) and in test [2] (treatment concentration 8 ppm) were 92 and 60, respectively.

With `CC(C)OC(=O)N[C@H](C(=O)N[C@H](C)c1nc2ccc(F)cc2s1)C(C)C` [Benthiavalicarb-isopropyl], the pest or weed control at 10 ppm in test [1] (setting [8]) was determined as 67%; in test [2] (setting [8]), 40%.

For the compound `O=C(Nc1ccccc1-c1ccc(Cl)cc1)c1cccnc1Cl` [Boscalid], the pest or weed control at 50 ppm in test [3] (setting [9]) was 17%.

On to `O=C1C2CC=CCC2C(=O)N1SC(Cl)(Cl)Cl` (centres unmarked) [Captan], for which, in test [3] (setting [9]), the pest or weed control at 133.3 ppm was 33%.

For the compound `Cc1ccc(C(=O)NC[C@@H](NC(=O)OC(C)C)C(C)C)cc1` [Compound 2001, Isopropyl ((1S)-2-methyl-1-{[(4-methylbenzoyl)amino]methyl}propyl)-carbamate], the pest or weed control at 5 ppm in the test with Pyricularia oryzae was found to be 33%.

For the compound `Cc1ccc(C(=O)NC[C@@H](NC(=O)OC(C)C)C(C)(C)C)cc1` [Compound 2002, Isopropyl ((1S)-2,2-dimethyl-1-{[(4-methylbenzoyl)amino]methyl}propyl)-carbamate], the pest or weed control at 5 ppm with Pyricularia oryzae worked out at 33%.

`CC(C)OC(=O)N[C@H](CNC(=O)c1cc2ccccc2o1)C(C)C` [Compound 2003, Isopropyl ((1S)-1-{[(1-benzofuran-2-ylcarbonyl)amino]methyl}-2-methyl-propyl)carbamate]: the pest or weed control at 5 ppm with Pyricularia oryzae was determined as 50%.

For `Cc1ccc(C(=O)NC[C@@H](NC(=O)OCC(F)(F)F)C(C)C)cc1` [Compound 2004, 2,2,2-Trifluoroethyl ((1S)-2-methyl-1-{[(4-methylbenzoyl)amino]methyl}-propyl)carbamate], the pest or weed control at 5 ppm in the test on Pyricularia oryzae turned out to be 67%.

For `Cc1ccc(C(=O)NC[C@@H](NC(=O)OCC(F)(F)F)C(C)(C)C)cc1` [Compound 2005, 2,2,2-Trifluoroethyl ((1S)-2,2-dimethyl-1-{[(4-methylbenzoyl)amino]methyl}-propyl)carbamate], the pest or weed control at 5 ppm in the test on Pyricularia oryzae came to 67%.

As to `CC(C)[C@@H](CNC(=O)c1cc2ccccc2o1)NC(=O)OCC(F)(F)F` [Compound 2006, 2,2,2-Trifluoroethyl ((1S)-1-{[(1-benzofuran-2-ylcarbonyl)amino]methyl}-2-methylpropyl)carbamate], the pest or weed control at 5 ppm in the test with Pyricularia oryzae amounted to 67%.

Take `Cc1ccc(C(=O)NC[C@H](C)NC(=O)OCC(F)(F)F)cc1` [Compound 2007, 2,2,2-Trifluoroethyl {(1S)-1-methyl-2-[(4-methylbenzoyl)amino]ethyl}-carbamate]: in the test with Pyricularia oryzae, the pest or weed control at 5 ppm amounted to 67%.

Turning to `Cc1ccc(C(=O)NC[C@@H](NC(=O)OCc2ccccc2)C(C)C)cc1` [Compound 2008, Benzyl ((1S)-2-methyl-1-{[(4-methylbenzoyl)amino]methyl}propyl)carbamate], in the test with Pyricularia oryzae, the pest or weed control at 5 ppm turned out to be 33%.

In the case of `Cc1ccc(C(=O)NC[C@@H](NC(=O)OC(C)C)C(F)(F)F)cc1` [Compound 2009, Isopropyl ((1R)-2,2,2-trifluoro-1-{[(4-methylbenzoyl)amino]methyl}ethyl)-carbamate], the pest or weed control at 5 ppm in the test on Pyricularia oryzae worked out at 67%.

Consider `Cc1ccc(-c2c(Cl)nc(C#N)n2S(=O)(=O)N(C)C)cc1` [Cyazofamid], for which the pest or weed control at 9.4 ppm in test [1] (setting [10]) is 67%; in test [2] (setting [10]) it was 40%.

In the case of `O=C(Cc1ccccc1)N/C(=N\OCC1CC1)c1c(C(F)(F)F)ccc(F)c1F` [Cyflufenamid], the pest or weed control at 1.7 ppm is 33% in the test on Sphaerotheca fuliginea [4] (setting [11]) and 67% with Sphaerotheca fuliginea [5] (setting [11]).

With `CCNC(=O)NC(=O)/C(C#N)=N/OC` [Cymoxanil], the results for the pest or weed control at 20 ppm in test [1] (setting [12]) and in test [2] (setting [12]) were 67% and 60%, respectively.

Turning to `CCOc1ccc(NC(=O)OC(C)C)cc1OCC` [Diethofencarb], in test [3] (setting [9]), the pest or weed control at 12.5 ppm worked out at 0%.

`COc1ccc(C(=CC(=O)N2CCOCC2)c2ccc(Cl)cc2)cc1OC` [Dimethomorph]: the pest or weed control at 20 ppm turned out to be 50% in test [1] (setting [12]) and 60% in test [2] (setting [12]).

As for `CCNc1nc(CC)c(C(=O)NC(C#N)c2cccs2)s1` (centres unmarked) [Ethaboxam], the Control value in test [1] (treatment concentration 10 ppm) is 67; in test [2] (treatment concentration 10 ppm) it was 20.

With `OC(c1ccc(Cl)cc1)(c1cncnc1)c1ccccc1Cl` (centres unmarked) [Fenarimol], the pest or weed control at 4 ppm stood at 67% in the test on Sphaerotheca fuliginea [4] (treatment concentration 4 ppm) and 78% in the test with Sphaerotheca fuliginea [5] (treatment concentration 4 ppm).

Take `N#CC(CCc1ccc(Cl)cc1)(Cn1cncn1)c1ccccc1` (centres unmarked) [Fenbuconazole]: the pest or weed control at 4.4 ppm in the test on Sphaerotheca fuliginea [4] (setting [13]) was 27%; in the test with Sphaerotheca fuliginea [5] (setting [13]) it was 75%.

Turning to `CC1(C(=O)Nc2ccc(O)c(Cl)c2Cl)CCCCC1` [Fenhexamid], the pest or weed control at 50 ppm in test [3] (setting [9]) amounted to 50%.

`O=[N+]([O-])c1cc(C(F)(F)F)c(Cl)c([N+](=O)[O-])c1Nc1ncc(C(F)(F)F)cc1Cl` [Fluazinam]: in test [3] (setting [9]), the pest or weed control at 20 ppm was 0%.

As for `N#Cc1c[nH]cc1-c1cccc2c1OC(F)(F)O2` [Fludioxonil], the pest or weed control at 20 ppm in test [3] (setting [9]) is 67%.

Consider `CCCCC(O)(Cn1cncn1)c1ccc(Cl)cc1Cl` (centres unmarked) [Hexaconazole], for which the pest or weed control at 2 ppm in the test with Sphaerotheca fuliginea [4] (treatment concentration 2 ppm) was found to be 17%; in the test with Sphaerotheca fuliginea [5] (treatment concentration 2 ppm) it was 75%.

For the compound `Clc1ccc(CSC(Cn2cncn2)=Nc2ccc(Cl)cc2Cl)cc1` [Imibenconazole], the pest or weed control at 15 ppm turned out to be 33% in the test on Sphaerotheca fuliginea [4] (treatment concentration 15 ppm) and 75% in the test with Sphaerotheca fuliginea [5] (treatment concentration 15 ppm).

Take `CC(C)NC(=O)N1CC(=O)N(c2cc(Cl)cc(Cl)c2)C1=O` [Iprodione]: the pest or weed control at 50 ppm in test [3] (setting [9]) was determined as 67%.

As for `CO/N=C(/C(=O)OC)c1ccccc1COc1ccccc1C` [Kresoxim-methyl], the pest or weed control at 20 ppm with Sphaerotheca fuliginea [4] came to 17%; in the test on Sphaerotheca fuliginea [5] it was 67%.

`CC#Cc1cc(C)nc(Nc2ccccc2)n1` [Mepanipyrim]: the pest or weed control at 20 ppm with Sphaerotheca fuliginea [4] stood at 0%; with Sphaerotheca fuliginea [5], 75%.

As for `COCC(=O)N(c1c(C)cccc1C)[C@H](C)C(=O)OC` [Metalaxyl M], the Control value in test [1] (treatment concentration 10 ppm) came to 83; in test [2] (treatment concentration 10 ppm), 60.

Take `COCC(=O)N(c1c(C)cccc1C)C(C)C(=O)OC` (centres unmarked) [Metalaxyl]: the pest or weed control at 10 ppm in test [1] (setting [8]) stood at 92%; in test [2] (setting [8]), 60%.

In turn, `CC1(C)COC(C)(CCCc2ccc(Cl)cc2)N1C(=O)n1ccnc1.CC1(C)COC(C)(CCCc2ccc(Cl)cc2)N1C(=O)n1ccnc1.O=C(O)/C=C/C(=O)O` (centres unmarked) [Oxpoconazole fumarate] displayed a Control value in test [3] (treatment concentration 10 ppm) of 0.

Regarding `CC(C)CC(C)c1sccc1NC(=O)c1cn(C)nc1C(F)(F)F` (centres unmarked) [Penthiopyrad], the pest or weed control at 10 ppm in test [3] (setting [9]) turned out to be 33%.

As for `CC12CC1(C)C(=O)N(c1cc(Cl)cc(Cl)c1)C2=O` (centres unmarked) [Procymidone], in test [3] (setting [9]), the pest or weed control at 50 ppm was 17%.

Take `CCCOC(=O)NCCCN(C)C` [Propamocarb hydrochloride]: the pest or weed control at 160 ppm in the test on Phytophthora infestans [6] came to 0%; in the test with Phytophthora infestans [7] it was 0%; in test [1] (setting [14]) it was 0%; in test [2] (setting [14]), 20%.

As to `C[Si](C)(C)CC(O)(Cn1cncn1)c1ccc(F)cc1` (centres unmarked) [Simeconazole], the pest or weed control at 10 ppm was 33% in test [3] (setting [9]), 0% in the test on Sphaerotheca fuliginea [4] and 33% with Sphaerotheca fuliginea [5].

Regarding `N#Cc1c(Cl)c(Cl)c(Cl)c(C#N)c1Cl` [TPN, Chlorothalonil (TPN)], the pest or weed control at 40 ppm in the test on Phytophthora infestans [6] came out at 0%; in the test with Phytophthora infestans [7] it was 0%; in test [1] (setting [15]), 83%; in test [2] (setting [15]) it was 60%.

As to `CC(C)(C)C(O)(CCc1ccc(Cl)cc1)Cn1cncn1` (centres unmarked) [Tebuconazole], the pest or weed control at 20 ppm in the test with Sphaerotheca fuliginea [4] was found to be 33%; in the test with Sphaerotheca fuliginea [5], 67%.

Turning to `COC(=O)NC(=S)Nc1ccccc1NC(=S)NC(=O)OC` [Thiophanate-methyl], the pest or weed control at 70 ppm in test [3] (setting [9]) turned out to be 43%.

As to `CC(C)(C)C(=O)C(Oc1ccc(Cl)cc1)n1cncn1` (centres unmarked) [Triadimefon], the pest or weed control at 10 ppm was 0% in the test on Sphaerotheca fuliginea [4] and 67% in the test on Sphaerotheca fuliginea [5].

With `CCCOC/C(=N\c1ccc(Cl)cc1C(F)(F)F)n1ccnc1` [Triflumizole], the pest or weed control at 6 ppm was found to be 33% with Sphaerotheca fuliginea [4] (treatment concentration 6 ppm) and 67% in the test with Sphaerotheca fuliginea [5] (treatment concentration 6 ppm).

Take `[Cu+2].[OH-].[OH-]` [cupric hydroxide]: the results for the Control value in test [1] (setting [16]) and in test [2] (setting [16]) were 50 and 40, respectively.

As to Fosetyl-aluminium, the Control value amounted to 67 in test [1] (setting [17]) and 60 in test [2] (setting [17]).

With Iminoctadine trialbesilate, in test [3] (treatment concentration 40 ppm), the Control value is reported as 67.

Turning to Mancozeb, the Control value is on record as 67 in test [1] (setting [18]) and 60 in test [2] (setting [18]).

As for Maneb, the Control value in test [3] (treatment concentration 177.5 ppm) was found to be 17.
